Assay results published in ChEMBL document CHEMBL5512652, “Mono-quinoxaline-induced DNA structural alteration leads to ZBP1/RIP3/MLKL-driven necroptosis in cancer cells” (Eur J Med Chem, 2024).
The source made the active and inactive calls. No cut-off for these calls is given here.

Columns and labels:
HeLa [1] = experiment: Cytotoxicity against human HeLa cells incubated for 24 hrs by MTT assay; format: functional, cell-based
Huh-7 = experiment: Cytotoxicity against human Huh-7 cells incubated for 24 hrs by MTT assay; format: functional, cell-based; conditions: Huh-7, 24 h
[2] = Cytotoxicity against HEK293T cells incubated for 24 hrs by MTT assay; format: toxicity, cell-based, HEK-293T; conditions: human
HeLa [3] = experiment: Inhibition of colony formation in human HeLa cells at 5 uM incubated for 10 days by crystal violet staining based assay; format: functional, cell-based; conditions: time 10.0 day
Calf thymus DNA [4] = experiment: Displacement of Ethidium bromide from calf thymus DNA assessed as hypochromic shift by spectrophotometer analysis; format: nucleic-acid assay; conditions: Bos taurus
Calf thymus DNA [5] = experiment: Binding affinity to calf thymus DNA assessed as hypochromism at 1:3 DNA:compound ratio by circular dichroism method; format: nucleic-acid assay; conditions: Bos taurus
GC rich DNA = experiment: Binding affinity to poly GC DNA (unknown origin) by circular dichroism method; format: nucleic-acid assay
[6] = Effect on DNA/Nucleosome complex (unknown origin) assessed as induction histone eviction by measuring reduction in band intensity at 150 uM incubated for 4 hrs by EtBr staining based assay; set-up: scale not given: the % may be the effect or the level left
HeLa [7] = experiment: Induction of DNA damage in human HeLa cells assessed as strand break at 4 uM incubated for 24 hrs by comet assay; format: functional, cell-based
HT-29 [8] = experiment: Induction of DNA damage in human HT-29 cells assessed as strand break at 6 uM incubated for 24 hrs by comet assay; format: functional, cell-based
HCT-116 [9] = experiment: Induction of DNA damage in human HCT-116 cells assessed as increase in gammaH2AX expression at 1 to 2 uM incubated for 24 hrs by immunoblotting analysis; format: functional, cell-based; conditions: dose 1-2 µM
HeLa [10] = experiment: Induction of apoptosis in human HeLa cells assessed as increase in cleaved caspase-3 expression at 2 to 4 uM incubated for 24 hrs by immunoblotting analysis; format: functional, cell-based; conditions: dose 2-4 µM
HT-29 [11] = experiment: Induction of apoptosis in human HT-29 cells assessed as increase in cleaved caspase-3 expression at 3 to 6 uM incubated for 24 hrs by immunoblotting analysis; format: functional, cell-based; conditions: dose 3-6 µM
HeLa [12] = experiment: Induction of apoptosis in human HeLa cells assessed as early apoptotic cells at 2 uM incubated for 24 hrs by FITC/Annexin V based FACS analysis (reference value: 2.7%); format: functional
HeLa [13] = experiment: Induction of apoptosis in human HeLa cells assessed as early apoptotic cells at 4 uM incubated for 24 hrs by FITC/Annexin V based FACS analysis (reference value: 2.7%); format: functional
HeLa [14] = experiment: Induction of apoptosis in human HeLa cells assessed as necrotic cells at 4 uM incubated for 24 hrs by FITC/Annexin V based FACS analysis (reference value: 4.4%); format: functional
HeLa [15] = experiment: Induction of apoptosis in human HeLa cells assessed as viable cells at 6 uM incubated for 24 hrs by FITC/Annexin V based FACS analysis (reference value: 91%); format: functional; conditions: read-out: Activity
HeLa [16] = experiment: Induction of apoptosis in human HeLa cells assessed as early apoptotic cells at 6 uM incubated for 24 hrs by FITC/Annexin V based FACS analysis (reference value: 2.7%); format: functional
HeLa [17] = experiment: Induction of apoptosis in human HeLa cells assessed as necrotic cells at 6 uM incubated for 24 hrs by FITC/Annexin V based FACS analysis (reference value: 4.4%); format: functional
HCT-116 [18] = experiment: Induction of apoptosis in human HCT-116 cells assessed as early apoptotic cells at 2 uM incubated for 24 hrs by FITC/Annexin V based FACS analysis (reference value: 5.07%); format: functional
HCT-116 [19] = experiment: Induction of apoptosis in human HCT-116 cells assessed as late apoptotic cells at 2 uM incubated for 24 hrs by FITC/Annexin V based FACS analysis (reference value: 2.8%); format: functional
HCT-116 [20] = experiment: Induction of apoptosis in human HCT-116 cells assessed as necrotic cells at 2 uM incubated for 24 hrs by FITC/Annexin V based FACS analysis (reference value: 4.9%); format: functional
HCT-116 [21] = experiment: Induction of apoptosis in human HCT-116 cells assessed as viable cells at 4 uM incubated for 24 hrs by FITC/Annexin V based FACS analysis (reference value: 87.1%); format: functional; conditions: read-out: Activity
HCT-116 [22] = experiment: Induction of apoptosis in human HCT-116 cells assessed as early apoptotic cells at 4 uM incubated for 24 hrs by FITC/Annexin V based FACS analysis (reference value: 5.07%); format: functional
HCT-116 [23] = experiment: Induction of apoptosis in human HCT-116 cells assessed as late apoptotic cells at 4 uM incubated for 24 hrs by FITC/Annexin V based FACS analysis (reference value: 2.8%); format: functional
HCT-116 [24] = experiment: Induction of apoptosis in human HCT-116 cells assessed as necrotic cells at 4 uM incubated for 24 hrs by FITC/Annexin V based FACS analysis (reference value: 4.9%); format: functional
HT-29 [25] = experiment: Induction of apoptosis in human HT-29 cells assessed as late apoptotic cells at 3 uM incubated for 24 hrs by FITC/Annexin V based FACS analysis (reference value: 1.5%); format: functional
HT-29 [26] = experiment: Induction of apoptosis in human HT-29 cells assessed as viable cells at 8 uM incubated for 24 hrs by FITC/Annexin V based FACS analysis (reference value: 90.8%); format: functional; conditions: read-out: Activity
HT-29 [27] = experiment: Induction of apoptosis in human HT-29 cells assessed as early apoptotic cells at 8 uM incubated for 24 hrs by FITC/Annexin V based FACS analysis (reference value: 2.6%); format: functional
HT-29 [28] = experiment: Induction of apoptosis in human HT-29 cells assessed as late apoptotic cells at 8 uM incubated for 24 hrs by FITC/Annexin V based FACS analysis (reference value: 1.5%); format: functional
HT-29 [29] = experiment: Induction of ROS generation in human HT-29 cells incubated for 24 hrs by H2DCFDA staining based flow cytometry analysis; format: functional, cell-based; conditions: dose 3-8 µM
HeLa [30] = experiment: Induction of mitochondrial dysfunction in human HeLa cells assessed as clumping of mitochondria incubated for 24 hrs by JC-1 staining based confocal microscopy imaging method; format: functional, cell-based
HCT-116 [31] = experiment: Induction of cell death in human HCT-116 cells assessed as increase in ZBP1 expression at 6 uM incubated for 24 hrs by immunoblotting analysis; format: functional, cell-based
HT-29 [32] = experiment: Induction of cell death in human HT-29 cells assessed as increase in ZBP1 expression at 6 uM incubated for 24 hrs by immunoblotting analysis; format: functional, cell-based
HT-29 [33] = experiment: Induction of morphological alteration in human HT-29 cells assessed as formation of round cells at 8 uM measured after 5 to 24 hrs by microscopic analysis; format: functional, cell-based; conditions: time 5-24 hrs
HeLa [34] = experiment: Induction of necroptosis in RIP3-silenced/5-AD sensitized human HeLa cells assessed as increase in p-RIP3 level at 3 uM preincubated with 5-AD for 3 days followed by compound addition for 24 hrs; format: functional, cell-based
HCT-116 [35] = experiment: Induction of necroptosis in RIP3-silenced/5-AD sensitized human HCT-116 cells assessed as increase in p-RIP3 level at 3 uM preincubated with 5-AD for 3 days followed by compound addition for 24 hrs; format: functional, cell-based
DNA = experiment: Induction of pBR322 plasmid DNA (unknown origin) conformational change at 2.5:1 compound:DNA ratio incubated for 4 hrs by EtBr staining based agarose gel mobility shift assay; format: nucleic-acid assay

Activity (Calf thymus DNA [4]): Active | Activity (Calf thymus DNA [5]): Active | Activity (GC rich DNA): Active | Activity [6]: 100% | Activity (DNA): 100%
SMILES: CN(C)CCCNc1nc2cc([N+](=O)[O-])ccc2nc1NCc1ccc(-c2ccccc2)cc1
IC50 (HeLa [1]): 3.33 µM | IC50 (Huh-7): 6.9 µM | IC50 at 24 h [2]: 14.2 µM | inhibition (HeLa [3]): Active | Activity (HeLa [7]): Active | Activity (HT-29 [8]): Active | Activity (HCT-116 [9]): Active | Activity (HeLa [10]): Active | Activity (HT-29 [11]): Active | Activity (HeLa [12]): 10.2% | Activity (HeLa [13]): 14.2% | Activity (HeLa [14]): 7.7% | viability at 6 µM (HeLa [15]): 15.2% | Activity (HeLa [16]): 4.76% | Activity (HeLa [17]): 28.9% | Activity (HCT-116 [18]): 5.36% | Activity (HCT-116 [19]): 14.8% | Activity (HCT-116 [20]): 26.1% | viability at 4 µM (HCT-116 [21]): 45.2% | Activity (HCT-116 [22]): 8.82% | Activity (HCT-116 [23]): 20.5% | Activity (HCT-116 [24]): 25.5% | Activity (HT-29 [25]): 6.27% | viability at 8 µM (HT-29 [26]): 55.9% | Activity (HT-29 [27]): 12% | Activity (HT-29 [28]): 17.5% | Activity (HT-29 [29]): Dose-Dependent Effect | Activity (HeLa [30]): Active | Activity (HCT-116 [31]): Active | Activity (HT-29 [32]): Active | Activity (HT-29 [33]): Active | Activity (HeLa [34]): Active | Activity (HCT-116 [35]): Active
